Several values for one entry are separate records, joined by “and”; a condition that tells them apart may be missing. Equal values may be shown once. Activity calls are given as the source filed them. How the calls were made is not given here.

The series relates to rodent lifetime carcinogenesis bioassay, tumor incidence TD50. The experiment in a line: carcinogenic potency in animals, long-term in vivo studies, CPDB compilation (AID 1745844).

By TD50 is commonly meant the dose at which the toxic effect under study appears in half of the subjects. As for `OCc1ccco1`, the carcinogen call runs as follows: (mouse, strain B6C3F1, females, inhaled, site: any site (literature study), lesion: several types, types named in the paper, dosed 104 weeks, study length 104 weeks) “negative (inactive)”; (rat, strain Fischer 344, females, inhaled, site: nasal cavity, respiratory epithelium, lateral wall, lesion: adenoma, dosed 105 weeks, study length 105 weeks) “e”. In addition, the TD50 was 41.8 mg/kg/day (mouse, strain B6C3F1, females, inhaled, site: lung, lesion: alveolar/bronchiolar adenoma + alveolar/bronchiolar carcinoma, dosed 104 weeks, study length 104 weeks); 263 mg/kg/day and 291 mg/kg/day (mouse, strain B6C3F1, males, inhaled, site: kidney, lesion: tubule adenoma + tubule carcinoma, dosed 104 weeks, study length 104 weeks); 538 mg/kg/day and 492 mg/kg/day (mouse, strain B6C3F1, males, inhaled, site: kidney, lesion: tubule adenoma, dosed 104 weeks, study length 104 weeks); 538 mg/kg/day and 744 mg/kg/day (mouse, strain B6C3F1, males, inhaled, site: kidney, lesion: tubule carcinoma, dosed 104 weeks, study length 104 weeks); 10.1 mg/kg/day (rat, strain Fischer 344, females, inhaled, site: all sites, lesion: mononuclear-cell leukemia, dosed 105 weeks, study length 105 weeks); 7.57 mg/kg/day (rat, strain Fischer 344, females, inhaled, site: any site (literature study), lesion: several types, types named in the paper, dosed 105 weeks, study length 105 weeks). Further, the TD50 reads like this: (rat, strain Fischer 344, females, inhaled, site: clitoral gland, lesion: adenoma + adenoma, bilateral + carcinoma + carcinoma, bilateral, dosed 105 weeks, study length 105 weeks) 27.8 mg/kg/day; (rat, strain Fischer 344, females, inhaled, site: clitoral gland, lesion: adenoma + adenoma, bilateral, dosed 105 weeks, study length 105 weeks) 35.7 mg/kg/day; (rat, strain Fischer 344, females, inhaled, site: kidney, lesion: tubule adenoma + tubule carcinoma, dosed 105 weeks, study length 105 weeks) 110 mg/kg/day and 161 mg/kg/day; (rat, strain Fischer 344, females, inhaled, site: kidney, lesion: tubule adenoma, dosed 105 weeks, study length 105 weeks) 113 mg/kg/day and 108 mg/kg/day; (rat, strain Fischer 344, females, inhaled, site: nasal cavity, respiratory epithelium, lesion: adenoma, dosed 105 weeks, study length 105 weeks) 161 mg/kg/day; (rat, strain Fischer 344, males, inhaled, site: Zymbal's gland, lesion: adenoma + carcinoma, dosed 102 weeks, study length 105 weeks) 17.4 mg/kg/day. Further, the TD50 is 1.46 mg/kg/day (rat, strain Fischer 344, males, inhaled, site: any site (literature study), lesion: several types, types named in the paper, dosed 102 weeks, study length 105 weeks); 9.6 mg/kg/day (rat, strain Fischer 344, males, inhaled, site: nasal cavity, respiratory epithelium, lateral wall + nasal cavity, respiratory epithelium, lesion: adenoma + carcinoma + squamous-cell carcinoma, dosed 102 weeks, study length 105 weeks); 46.4 mg/kg/day (rat, strain Fischer 344, males, inhaled, site: nasal cavity, respiratory epithelium, lesion: squamous-cell carcinoma, dosed 102 weeks, study length 105 weeks).

For the molecule `CCCCC/C=C\C/C=C\CCCCCCCC(=O)OC`, the carcinogen call was “negative (inactive)” (rat, strain Wistar, males, by gavage, site: gastrointestinal tract, lesion: several types, types named in the paper, dosed 30 weeks, study length 87 weeks) and “negative (inactive)” (rat, strain Wistar, males, by gavage, site: liver, lesion: one or several types, types not named, dosed 30 weeks, study length 87 weeks).

On to `CN(N=O)C(=O)c1ccccc1C(=O)N(C)N=O`, for which the carcinogen call (rat, strain Wistar, males, by gavage, site: any site (literature study), lesion: several types, types named in the paper, dosed 67 weeks, study length 67 weeks) was “negative (inactive)”.

Regarding `C=C(C)CCl`, the TD50 reads like this: (mouse, strain B6C3F1, females, by gavage, site: any site (literature study), lesion: several types, types named in the paper, dosed 103 weeks, study length 105 weeks) 149 mg/kg/day; (mouse, strain B6C3F1, females, by gavage, site: forestomach, lesion: squamous-cell carcinoma + squamous-cell papilloma, dosed 103 weeks, study length 105 weeks) 82.3 mg/kg/day; (mouse, strain B6C3F1, females, by gavage, site: forestomach, lesion: squamous-cell papilloma, dosed 103 weeks, study length 105 weeks) 87.7 mg/kg/day; (mouse, strain B6C3F1, females, by gavage, site: lung, lesion: alveolar/bronchiolar adenoma + alveolar/bronchiolar carcinoma, dosed 103 weeks, study length 105 weeks) 5180 mg/kg/day; (mouse, strain B6C3F1, males, by gavage, site: any site (literature study), lesion: several types, types named in the paper, dosed 103 weeks, study length 105 weeks) 402 mg/kg/day; (mouse, strain B6C3F1, males, by gavage, site: forestomach, lesion: squamous-cell carcinoma + squamous-cell papilloma, dosed 103 weeks, study length 105 weeks) 73.5 mg/kg/day. The TD50 by setting is: (mouse, strain B6C3F1, males, by gavage, site: forestomach, lesion: squamous-cell carcinoma, dosed 103 weeks, study length 105 weeks) 432 mg/kg/day; (mouse, strain B6C3F1, males, by gavage, site: forestomach, lesion: squamous-cell papilloma, dosed 103 weeks, study length 105 weeks) 96.2 mg/kg/day; (mouse, strain BDF1, females, inhaled, site: Harderian gland, lesion: adenoma, dosed 104 weeks, study length 104 weeks) 665 mg/kg/day; (mouse, strain BDF1, females, inhaled, site: forestomach, lesion: squamous-cell papilloma, dosed 104 weeks, study length 104 weeks) 1850 mg/kg/day; (mouse, strain BDF1, females, inhaled, site: liver, lesion: hepatocellular carcinoma, dosed 104 weeks, study length 104 weeks) 60000 mg/kg/day; (mouse, strain BDF1, females, inhaled, site: lung, lesion: alveolar/bronchiolar carcinoma, dosed 104 weeks, study length 104 weeks) 6750 mg/kg/day. Moreover, the TD50 runs as follows: (mouse, strain BDF1, males, inhaled, site: forestomach, lesion: squamous-cell carcinoma, dosed 104 weeks, study length 104 weeks) 11500 mg/kg/day; (mouse, strain BDF1, males, inhaled, site: forestomach, lesion: squamous-cell papilloma, dosed 104 weeks, study length 104 weeks) 2040 mg/kg/day; (mouse, strain BDF1, males, inhaled, site: lung, lesion: alveolar/bronchiolar adenoma, dosed 104 weeks, study length 104 weeks) 1020 mg/kg/day; (mouse, strain BDF1, males, inhaled, site: lung, lesion: alveolar/bronchiolar carcinoma, dosed 104 weeks, study length 104 weeks) 1570 mg/kg/day; (rat, strain Fischer 344, females, by gavage, site: any site (literature study), lesion: several types, types named in the paper, dosed 103 weeks, study length 105 weeks) 323 mg/kg/day; (rat, strain Fischer 344, females, by gavage, site: forestomach, lesion: papilloma, NOS, dosed 103 weeks, study length 105 weeks) 320 mg/kg/day. The TD50 was 524 mg/kg/day (rat, strain Fischer 344, females, by gavage, site: subcutaneous tissue, lesion: fibroma, dosed 103 weeks, study length 105 weeks); 109 mg/kg/day (rat, strain Fischer 344, males, by gavage, site: any site (literature study), lesion: several types, types named in the paper, dosed 103 weeks, study length 105 weeks); 68.7 mg/kg/day (rat, strain Fischer 344, males, by gavage, site: forestomach, lesion: papilloma, NOS, dosed 103 weeks, study length 105 weeks); 714 mg/kg/day (rat, strain Fischer 344, males, by gavage, site: liver, lesion: hepatocellular adenoma + hepatocellular carcinoma + neoplastic nodule, dosed 103 weeks, study length 105 weeks); 54 mg/kg/day (rat, strain Fischer 344, males, by gavage, site: testis, lesion: interstitial-cell tumor, dosed 103 weeks, study length 105 weeks).

As for `Nc1ccc(N=Nc2ccc(-c3ccc(N=Nc4c(S(=O)(=O)O)cc5cc(S(=O)(=O)O)c(N=Nc6ccccc6)c(O)c5c4N)cc3)cc2)c(N)c1`, the TD50 is 32 mg/kg/day (mouse, strain ICR, both sexes, in drinking water, site: any site (literature study), lesion: several types, types named in the paper, dosed 57 weeks, study length 57 weeks); 71.6 mg/kg/day (mouse, strain ICR, both sexes, in drinking water, site: liver, lesion: hepatoma, dosed 57 weeks, study length 57 weeks); 262 mg/kg/day (mouse, strain ICR, both sexes, in drinking water, site: mammary gland, lesion: several types, types named in the paper, dosed 57 weeks, study length 57 weeks); 2.61 mg/kg/day (rat, strain Fischer 344, females, in feed, site: any site (literature study), lesion: several types, types named in the paper, dosed 13 weeks, study length 13 weeks); 2.61 mg/kg/day (rat, strain Fischer 344, females, in feed, site: liver, lesion: hepatocellular adenoma + hepatocellular carcinoma + neoplastic nodule, dosed 13 weeks, study length 13 weeks); 2.61 mg/kg/day (rat, strain Fischer 344, females, in feed, site: liver, lesion: neoplastic nodule, dosed 13 weeks, study length 13 weeks). Also, the TD50 (rat, strain Fischer 344, males, in feed, site: any site (literature study), lesion: several types, types named in the paper, dosed 13 weeks, study length 13 weeks) worked out at 0.945 mg/kg/day; the TD50 (rat, strain Fischer 344, males, in feed, site: liver, lesion: hepatocellular adenoma + hepatocellular carcinoma + neoplastic nodule, dosed 13 weeks, study length 13 weeks) came out at 0.945 mg/kg/day; the TD50 (rat, strain Fischer 344, males, in feed, site: liver, lesion: hepatocellular carcinoma + neoplastic nodule, dosed 13 weeks, study length 13 weeks) is 0.945 mg/kg/day; the TD50 (rat, strain Fischer 344, males, in feed, site: liver, lesion: hepatocellular carcinoma, dosed 13 weeks, study length 13 weeks) was 2.22 mg/kg/day.

With `C1CNCCN1`, for the setting “rat, strain MRC, females, in drinking water, site: any site (literature study), lesion: several types, types named in the paper, dosed 75 weeks, study length 104 weeks”, the TD50 came to 11.2 mg/kg/day.

Turning to `NC(=O)NNc1ccccc1`, the TD50 is, setting by setting: (mouse, strain Swiss albino, females, in drinking water, site: liver, lesion: angioma, dosed 79 weeks, study length 79 weeks) 2670 mg/kg/day (inactive); (mouse, strain Swiss albino, females, in drinking water, site: liver, lesion: angiosarcoma, dosed 79 weeks, study length 79 weeks) 1980 mg/kg/day (inactive); (mouse, strain Swiss albino, females, in drinking water, site: lung, lesion: adenocarcinoma, dosed 79 weeks, study length 79 weeks) 1250 mg/kg/day; (mouse, strain Swiss albino, females, in drinking water, site: lung, lesion: adenoma, dosed 79 weeks, study length 79 weeks) 150 mg/kg/day; (mouse, strain Swiss albino, females, in drinking water, site: lung, lesion: several types, types named in the paper, dosed 79 weeks, study length 79 weeks) 155 mg/kg/day; (mouse, strain Swiss albino, males, in drinking water, site: liver, lesion: angiosarcoma, dosed 79 weeks, study length 79 weeks) 2000 mg/kg/day (inactive). Besides, the TD50 was 1790 mg/kg/day (mouse, strain Swiss albino, males, in drinking water, site: liver, lesion: several types, types named in the paper, dosed 79 weeks, study length 79 weeks); 158 mg/kg/day (mouse, strain Swiss albino, males, in drinking water, site: lung, lesion: adenoma, dosed 79 weeks, study length 79 weeks); 176 mg/kg/day (mouse, strain Swiss albino, males, in drinking water, site: lung, lesion: several types, types named in the paper, dosed 79 weeks, study length 79 weeks).

For the origin of these results see PubChem BioAssay AID1745844 (Carcinogenic Potency Database (CPDB), 2022).
